Source: patent EP1482971B1, “STRATEGY FOR RETROVIRAL IMMUNOTHERAPY” (priority 2002, dated 2003)
Where two headings read alike, the source gives them in different places.

Key:
[1] = test system: LP-BM5 murine leukemia virus (MuLV); experiment: MAIDS development after a single dose of vinblastine at different times post infection (spleen weight, histology, FACS analysis); assay type: in vivo, C57BL/6 mice
Text: A murine AIDS (MAIDS) pathology induced by LP-BM5 murine leukemia virus (MuLV) in susceptible mice is an effective tool to investigate mechanisms of retrovirus-induced immunodeficiency. […] Infection of a susceptible strain such as C57BL/6 mice with LP-BM5 leads to chronic splenomegaly, hypergammaglobulinaemia and development of immunodeficiency in both T and B cells. In vitro, there is a progressive impairment in the responsiveness of T-cells and B-cells to mitogenic or specific antigenic stimuli. In vivo, infected mice become increasingly susceptible to challenge with a variety of opportunistic organisms and can develop B-cell lymphoma. Deaths are first observed at 8-10 weeks post-infection (pi), and all mice die within 24 weeks (Figure 1). These alterations in immune function reflect complex changes in the phenotype and function of all components of the immune network.
The treatment with a single dose of the anti-mitotic agent vinblastine (Vb) at different times pi is able to prevent the development/progression of MAIDS. […] Clearly, the Vb treatment is remarkably therapeutic when administered at 6 hr or 14 days pi with 100% (10/10) and 74% (20/27) of mice, respectively, showing no signs of MAIDS development at 10 weeks pi (as determined by spleen weight, histology and FACS analysis). […] Additional experiments have provided results of 100% of mice having no signs of MAIDS development at least 12 months after Vb treatment 14 days pi (data not shown). Although not as pronounced as the protection seen after day 14 treatment, moderate protection from MAIDS development was still observed. […] The total protection from MAIDS development seen in mice given Vb at 6 hrs pi is not unexpected as the virus replicates in actively replicating cells which are the target of the anti-mitotic drug thus any cells infected with the virus are killed by the Vb preventing the virus from rapidly establishing an infection in the host. However, the highly protective effect observed after a single treatment with Vb at 14 days pi is quite remarkable as, by this stage, the viral infection is well established and the early disease processes are well underway. We propose that this highly therapeutic effect is due to the Vb targeting a particular subset of immune regulator cells during their expansion phase and thereby altering the immune response to the viral infection. […] This leads to long term disease free survival for many months post-infection and treatment.
Spleens from the Day 14 pi Vb treated mice as well as infected and uninfected control mice were weighed and examined histologically. The splenic architecture of all MAIDS infected mice was profoundly disorganised as previously reported (Hartley et al., 1989).

MAIDS virus [2] = experiment: Spleen cell transfer into Vb-treated MAIDS infected mice; assay type: in vivo
Text: The experiments illustrated in Figure 7 were designed to determine if a single dose of Vb, administered at 14 days pi, is eliminating a population of expanding CD4^+ regulator T cells and thereby releasing effector cells from down-regulation and clearing the host of the MAIDS virus.
Mice were infected with MAIDS, received day 14 pi Vb treatment and then received an adoptive transfer of ∼10^7 spleen cells from donor mice prepared as outlined in Figure 7. For each experiment [designated (I), (II) and (III)] groups consisted of 7 recipient mice and 9 donor mice. Mice in Group I received whole spleens from infected mice that had not received any Vb treatment. Mice in Group II received whole spleen cell preparations, from infected mice, that had been depleted of CD4^+ cells using a FACS cell sorter after staining with fluorochrome-labeled anti-CD4 monoclonal antibody. […] Mice in Group III received whole spleens from infected donor mice that also received Vb treatment on day 14 pi.

MAIDS virus [3] = experiment: Adoptive transfer of CD4+CD25+/- cells into MAIDS infected day 14 Vinblastine treated mice; assay type: in vivo; details: MAIDS-infected day 14 Vb-treated recipients given CD4+CD25+ or CD4+CD25- cells from uninfected donors
Text: An adoptive transfer experiment was designed to directly test the hypothesis that CD4+CD25+ T cells are functioning as the regulator cells in the murine AIDS model. The same approach used to determine that the regulator cells are CD4+ T cells was used to test whether the CD4+CD25+ subset are the target of day 14 Vinblastine treatment. […] 2.0x10^6 cells of the regulator CD4+CD25+ phenotype were purified from single cell suspensions of donor spleens using MACS beads (Miltenyi Biotec) using two positive selection steps. The cells were then tested for purity by flow cytometry (both CD4+CD25+ and CD4+CD25- fractions were of > 90 % purity) and viability using trypan blue exclusion prior to transfer into uninfected (control) and MAIDS infected day 14 Vinblastine treated mice. CD4+CD25- cells were also transferred to allow that the regulator cells may not present in the CD25+ fraction and also to allow for the possibility that these putative regulator cells may lose CD25 expression as they expand and become activated as was reported by Gavin et al., 2002.
Mice receiving adoptive transfer of cells were either uninfected (control) or MAIDS infected and day 14 Vinblastine treated to examine whether the transfer of cells would result in disease progression. […] Disease progression was assessed by spleen weight at 10 weeks post MAIDS infection. […]

[4] = test system: CD4^+ T cells and CD25^+CD4^+ T cells; experiment: Direct FACS analysis of spleen cells following Vb therapy on day 14 post infection; assay type: in vivo, mice; details: spleens collected 48 hours post Vb treatment
Experimental: FACS analysis of CD4^+ and CD8^+ T cells prepared from spleens of mice treated with Vb on Day 14 pi was performed (Figure 6). CD25^+CD4^+ T cells were also examined as they have recently been identified as having an important regulatory function in mouse models of autoimmune disease and tumour immunology (Takahashi et al., 1998; Shimizu et al., 1999). It is possible that these cells may play a role in the regulation of the immune response to MAIDS. Day 14 pi and uninfected control mice were given Vb therapy and the spleens collected at 48 hours post Vb treatment.

MAIDS virus [5] = experiment: Rechallenge with MAIDS virus following protective vinblastine therapy; assay type: in vivo, mice; details: Vb at day 14 pi, rechallenged at 3 or 8 weeks post Vb treatment; assessed at 20 weeks
Text: To determine if mice protected from MAIDS by the day 14 pi Vb treatment develop an immune response which would then protect them from a subsequent rechallenge with the MAIDS virus groups of mice, given the Vb therapy at day 14 pi, were rechallenged with the MAIDS virus at 3 or 8 weeks post Vb treatment. […] This is not an unexpected result as the dominant immunosuppression by the regulator population of cells would have been restored as a consequence of the immune effector response to the second (untreated) infection.

murine T cell lymphoma = details: cited from earlier work

## CC[C@]1(O)C[C@@H]2CN(CCc3c([nH]c4ccccc34)[C@@](C(=O)OC)(c3cc4c(cc3OC)N(C)[C@H]3[C@@](O)(C(=O)OC)[C@H](OC(C)=O)[C@]5(CC)C=CCN6CC[C@]43[C@@H]65)C2)C1 [Vb, vinblastine]
[1]; Vb at day 14 pi, 4/5 mice
  mice protected from any splenomegaly at 20 weeks pi: 80%
[1]; Vb treatment 14 days pi, additional experiments, data not shown
  mice having no signs of MAIDS development at least 12 months after Vb treatment: 100%
[1]; day 14 pi Vb treated mice at 10 weeks pi, preliminary, data not shown
  cellular proportions (CD4^+, CD8^+ and B cells) and distributions of spleen cells by FACS analysis: like those observed in normal uninfected mice
[1]; day 14 pi Vb treated mice with normal spleen weights (below 0.25g), 10 weeks pi
  splenic architecture (spleen histology): indistinguishable from that of uninfected control mice
[1]; single 6mg/kg i.p. dose given at 6 hr pi, 10/10 mice, by spleen weight, histology and FACS analysis
  mice showing no signs of MAIDS development at 10 weeks pi: 100%
[1]; single 6mg/kg i.p. dose given at 6 days pi, 6/13 mice
  mice with protective effect (no signs of MAIDS development at 10 weeks pi): 46%
[1]; single 6mg/kg i.p. dose given at 14 days pi, 20/27 mice
  mice showing no signs of MAIDS development at 10 weeks pi: 74%
[1]; single 6mg/kg i.p. dose given at day 2 pi
  protection against MAIDS development: no protection against MAIDS development
[1]; single 6mg/kg i.p. dose given at day 7 pi
  protection against MAIDS development: no protection against MAIDS development
MAIDS virus [2]; Group I: day 14 pi Vb, then ~10^7 whole spleen cells from MAIDS infected donors without Vb
  protective effect of Vb against MAIDS development after spleen cell transfer: completely prevented Vb from protecting mice from MAIDS development
MAIDS virus [2]; Group II: donor spleen cells depleted of CD4^+ cells by FACS sorting before transfer
  protective effect of Vb against MAIDS development after spleen cell transfer: the protective effect of Vb was not overcome
MAIDS virus [2]; Group III: spleen cells from MAIDS infected donors also given day 14 Vb
  protective effect of Vb against MAIDS development after spleen cell transfer: fully protected from MAIDS development
MAIDS virus [3]
  disease progression (spleen weight at 10 weeks post MAIDS infection) after adoptive cell transfer: disease progression was readily apparent
[4]; Vb at day 14 pi and in uninfected controls
  effect on spleen cell subsets: all cell subsets are reduced
[4]; Vb at day 14 pi
  cell subsets preferentially targeted in MAIDS infected mice (uninfected to infected ratios): CD4^+ T cells and CD25^+CD4^+ T cells that are preferentially targeted
MAIDS virus [5]
  protection from viral rechallenge: not protected from viral rechallenge
Murine T cell lymphoma; single dose at day 10 following tumour inoculation
  effect on tumour: enhancement
Murine T cell lymphoma; single dose at days 4, 6, 13 and 15 following tumour inoculation
  effect on tumour: regression
